From US8828401B2, “Cytotoxic peptides and antibody drug conjugates thereof” (Pfizer Inc., priority 2011, dated 2014) come the findings set out here.

What all share (format): cell-based
One assay concerns BT474 (breast cancer). Nature of the assay: In vitro cell assay, MTS cell viability 96 hours after treatment. The settings on record: geometric mean, cytotoxic peptides, read-out: BT474 GMEAN IC50. The gist of the method: (§1)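 Duplicate wells received antibody-drug conjugates or free compounds across ten 3-fold dilutions. MTS assay determined viability, normalised to untreated controls.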

The subject of assay [1] is MDA-MB-361-DYT2 (breast cancer). Described as above. The settings on record: read-out: MDA-MB-361-DYT2 GMEAN IC50, MDA-MB-361-DYT2 cells; geometric mean; cytotoxic peptides. The gist of the method: as §1
The test system of a further assay is N87 (gastric cancer). The assay is described as above. The note with it: read-out: N87 GMEAN IC50, N87 cells; geometric mean; cytotoxic peptides. The gist of the method: as §1
For assay [2], the system named is MDA-MB-468 (breast cancer). Nature of the assay: In vitro cytotoxicity assay with anti-Notch ADCs (MTS). The note with it: average of 2-4 repeats where ± S.E.M. is given. As to the method: The effects of anti-Notch ADCs were assessed on 1) cell lines endogenously expressing Notch protein: HCC2429 (lung cancer), OVCAR3 (ovarian cancer) and MDA-MB-468 (breast cancer), 2) cell lines engineered to over-express Notch protein: MDA-MB-468/hNotch and U2OS/hNotch, and 3) a negative control cell line (SW900) using an MTS cellular viability indicator (Promega, Madison, Wis.). These cell lines were cultured with increasing concentrations of anti-Notch ADCs comprising humanized anti-Notch antibodies, hu28 and hu75, and rat-human chimeric anti-Notch antibodies, ch28 and ch75, conjugated to various linker-payload combinations of the present invention. As a specificity control for the anti-Notch-ADCs, non-targeted control-ADCs (huNeg8.8-ADCs or ch2H6-ADCs) were also tested on the same cell lines. After four days, viability of each culture was assessed. IC50 values were calculated by logistic non-linear regression and presented as ng Ab/mL. The drug antibody ratio (DAR) is also provided.

Where [3] appears, read: Homo sapiens, BT-474, BT474 cells.

By IC50 is commonly meant the concentration that gives 50% inhibition.

Read-outs that look alike come from different tables or passages of the source. Starred links: 1 amine or outer side, 2 acyl side, 3 side chain; linkers in the order of their positions; H or OH if unused. Non-standard residues stand in square brackets, D forms with d. Residues, ends and D or L forms follow the SMILES beside them. *: point of attachment. Dolaproine = CO[C@@H]([C@@H]1CCCN1)[C@@H](C)C(=O)O; X6 = O=C([C@H](N[*:1])[C@@H]1Cc2ccccc21)[*:2]; X5 = O=C([C@@H](N[*:1])C1(c2ccccc2)CC1)[*:2]; X2 = O=C([C@H](N[*:1])C1(c2ccccc2)CC1)[*:2]; Dil = CC[C@H](C)[C@H](NC)[C@@H](CC(=O)O)OC; NMeαMePro = CN1CCC[C@@]1(C)C(=O)*; N(CH2CH2)2NH = C1CN(*)CCN1; X1 = CN1CCC[C@]1(C)C(=O)*; NMeAib = CNC(C)(C)C(=O)O; X4 = CN(C)C(C)(C)C(=O)*; NH(propargyl) = C#CCN*; Aib = CC(C)(N)C(=O)O; X3 = C1C2CC1(N*)C2 A value given as a limit tells only on which side of the number the result lay.

Take `CC[C@H](C)[C@@H]([C@@H](CC(=O)N1CCC[C@H]1[C@H](OC)[C@@H](C)C(=O)N[C@@H](Cc1ccccc1)C(=O)OC)OC)N(C)C(=O)[C@@H](NC(=O)[C@@]1(F)CCNC1)C(C)C` [#173, methyl N-{(2R,3R)-3-[(2S)-1-{(3R,4S,5S)-4-[(N-{[(3R)-3-fluoropyrrolidin-3-yl]carbonyl}-L-valyl)(methyl)amino]-3-methoxy-5-methylheptanoyl}pyrrolidin-2-yl]-3-methoxy-2-methylpropanoyl}-L-phenylalaninate]: the IC50 came to 0.088 nM in the assay on BT474 (breast cancer) (BT474 cells), 0.067 nM in assay [1] and 0.099 nM with N87 (gastric cancer).

`CC[C@H](C)[C@@H]([C@@H](CC(=O)N1CCC[C@H]1[C@H](OC)[C@@H](C)C(=O)NCCC1C=CC=CC=C1)OC)N(C)C(=O)[C@@H](NC(=O)[C@]1(C)CCCCN1)C(C)C` [#178, (2S)-N-[(2S)-1-{[(3R,4S,5S)-1-{(2S)-2-[(1R,2R)-3-{[2-(cyclohepta-2,4,6-trien-1-yl)ethyl]amino}-1-methoxy-2-methyl-3-oxopropyl]pyrrolidin-1-yl}-3-methoxy-5-methyl-1-oxoheptan-4-yl](methyl)amino}-3-methyl-1-oxobutan-2-yl]-2-methylpiperidine-2-carboxamide]: the values for the IC50 (in the assay with BT474 (breast cancer) (setting [3]); in assay [1]; with N87 (gastric cancer)) were 0.968 nM, 0.911 nM and 1.26 nM, respectively.

In the case of `CC[C@H](C)[C@@H]([C@@H](CC(=O)N1CCC[C@H]1[C@H](OC)[C@@H](C)C(=O)NCCC1C=CC=CC=C1)OC)N(C)C(=O)[C@@H](NC(=O)[C@@]1(F)CCNC1)C(C)C` [#184, N-[(3R,4S,5S)-1-{(2S)-2-[(1R,2R)-3-{[2-(cyclohepta-2,4,6-trien-1-yl)ethyl]amino}-1-methoxy-2-methyl-3-oxopropyl]pyrrolidin-1-yl}-3-methoxy-5-methyl-1-oxoheptan-4-yl]-N˜2˜-{[(3R)-3-fluoropyrrolidin-3-yl]carbonyl}-N-methyl-L-valinamide], the IC50 in the assay on BT474 (breast cancer) (setting [3]) worked out at 2.48 nM; in assay [1] it was 3.43 nM; in the assay on N87 (gastric cancer), 5.1 nM.

`CC[C@H](C)[C@@H]([C@@H](CC(=O)N1CCC[C@H]1[C@H](OC)[C@@H](C)C(=O)N[C@@H](Cc1ccc2c(c1)CCCN2)C(=O)OC)OC)N(C)C(=O)[C@@H](NC(=O)[C@@]1(C)CCCN1C)C(C)C` [#200, 1,2-dimethyl-D-prolyl-N-[(3R,4S,5S)-3-methoxy-1-{(2S)-2-[(1R,2R)-1-methoxy-3-{[(2S)-1-methoxy-1-oxo-3-(1,2,3,4-tetrahydroquinolin-6-yl)propan-2-yl]amino}-2-methyl-3-oxopropyl]pyrrolidin-1-yl}-5-methyl-1-oxoheptan-4-yl]-N-methyl-L-valinamide]: the IC50 in the assay on BT474 (breast cancer) (setting [3]) was determined as 0.048 nM; in assay [1] it was 0.017 nM; in the assay with N87 (gastric cancer), 0.029 nM.

`CC[C@H](C)[C@@H]([C@@H](CC(=O)N1CCC[C@H]1[C@H](OC)[C@@H](C)C(=O)N[C@@H](Cc1ccccc1)C(=O)OC)OC)N(C)C(=O)[C@@H](NC(=O)[C@]1(C)CCCN1C)C(C)C` [#209, 1,2-dimethyl-L-prolyl-N-[(3R,4S,5S)-3-methoxy-1-{(2S)-2-[(1R,2R)-1-methoxy-3-{[(2S)-1-methoxy-1-oxo-3-phenylpropan-2-yl]amino}-2-methyl-3-oxopropyl]pyrrolidin-1-yl}-5-methyl-1-oxoheptan-4-yl]-N-methyl-L-valinamide] (NMeαMePro-V[Dil][Dolaproine]F-OMe): the figures for the IC50 (in the assay on BT474 (breast cancer) (setting [3]); in assay [1]; in the assay with N87 (gastric cancer)) were 0.067 nM, 0.058 nM and 0.067 nM, respectively.

For the molecule `CC[C@H](C)[C@@H]([C@@H](CC(=O)N1CCC[C@H]1[C@H](OC)[C@@H](C)C(=O)NC12CC(C1)C2)OC)N(C)C(=O)[C@@H](NC(=O)C(C)(C)N)C(C)C` [#221] (H-[Aib]V[Dil][Dolaproine]-X3), the IC50 was 32.4 nM in the assay with BT474 (breast cancer) (setting [3]), 65.4 nM in assay [1] and 87.9 nM in the assay on N87 (gastric cancer).

Turning to `CC[C@H](C)[C@@H]([C@@H](CC(=O)N1CCC[C@H]1[C@H](OC)[C@@H](C)C(=O)N[C@H](C(=O)OC)C1(c2ccccc2)CC1)OC)N(C)C(=O)[C@@H](NC(=O)C(C)(C)N)C(C)C` [#223] (H-[Aib]V[Dil][Dolaproine][X5]-OMe), the figures for the half-maximal inhibitory concentration (IC50) (in the assay with BT474 (breast cancer) (setting [3]); in assay [1]; with N87 (gastric cancer)) were 7.59 nM, 10.9 nM and 13 nM, respectively.

On to `CC[C@H](C)[C@@H]([C@@H](CC(=O)N1CCC[C@H]1[C@H](OC)[C@@H](C)C(=O)N[C@@H](C(=O)OC)[C@@H]1Cc2ccccc21)OC)N(C)C(=O)[C@@H](NC(=O)C(C)(C)N)C(C)C` [#224] (H-[Aib]V[Dil][Dolaproine][X6]-OMe), for which the values for the IC50 (in the assay on BT474 (breast cancer) (setting [3]); in assay [1]; in the assay with N87 (gastric cancer)) were 0.383 nM, 0.998 nM and 1.56 nM, respectively.

`CC[C@H](C)[C@@H]([C@@H](CC(=O)N1CCC[C@H]1[C@H](OC)[C@@H](C)C(=O)N[C@@H](Cc1ccccc1)C(=O)OC)OC)N(C)C(=O)[C@@H](NC(=O)C(C)(C)NC)C(C)C` [#226] (H-[NMeAib]V[Dil][Dolaproine]F-OMe): the results for the IC50 (in the assay on BT474 (breast cancer) (setting [3]); in assay [1]; in the assay on N87 (gastric cancer)) were 0.118 nM, 0.106 nM and 0.478 nM, respectively.

Consider `CC[C@H](C)[C@@H]([C@@H](CC(=O)N1CCC[C@H]1[C@H](OC)[C@@H](C)C(=O)N[C@@H](Cc1ccccc1)C(=O)O)OC)N(C)C(=O)[C@@H](NC(=O)C(C)(C)N(C)C)C(C)C` [#229] (X4-V[Dil][Dolaproine]F-OH), for which the IC50 with BT474 (breast cancer) (setting [3]) came out at 18.4 nM; in assay [1] it was 10.2 nM; with N87 (gastric cancer) it was 16.6 nM.

On to `CC[C@H](C)[C@@H]([C@@H](CC(=O)N1CCC[C@H]1[C@H](OC)[C@@H](C)C(=O)N[C@@H](C(=O)O)C1(c2ccccc2)CC1)OC)N(C)C(=O)[C@@H](NC(=O)C(C)(C)N)C(C)C` [#230] (H-[Aib]V[Dil][Dolaproine][X2]-OH), for which the IC50 was at least 100 nM with BT474 (breast cancer) (setting [3]), 70.2 nM in assay [1] and 89.1 nM in the assay on N87 (gastric cancer).

Consider `CC[C@H](C)[C@@H]([C@@H](CC(=O)N1CCC[C@H]1[C@H](OC)[C@@H](C)C(=O)N[C@@H](Cc1ccccc1)C(=O)OC)OC)N(C)C(=O)[C@@H](NC(=O)[C@@]1(C)CCCN1C)C(C)C` [#236] (X1-V[Dil][Dolaproine]F-OMe), for which the IC50 with BT474 (breast cancer) (setting [3]) came out at 0.02 nM; in assay [1], 0.01 nM; in the assay on N87 (gastric cancer), 0.023 nM.

On to `C#CCNC(=O)[C@H](Cc1ccccc1)NC(=O)[C@H](C)[C@@H](OC)[C@@H]1CCCN1C(=O)C[C@@H](OC)[C@H]([C@@H](C)CC)N(C)C(=O)[C@@H](NC(=O)C(C)(C)NC)C(C)C` [#241] (H-[NMeAib]V[Dil][Dolaproine]F-{NH(propargyl)}), for which the IC50 was found to be 0.364 nM in the assay with BT474 (breast cancer) (setting [3]), 0.494 nM in assay [1] and 0.388 nM in the assay on N87 (gastric cancer).

With `CC[C@H](C)[C@@H]([C@@H](CC(=O)N1CCC[C@H]1[C@H](OC)[C@@H](C)C(=O)N[C@@H](Cc1c[nH]cn1)C(=O)OC)OC)N(C)C(=O)[C@@H](NC(=O)C(C)(C)NC)C(C)C` [#242] (H-[NMeAib]V[Dil][Dolaproine]H-OMe), the IC50 in the assay on BT474 (breast cancer) (setting [3]) turned out to be 32.3 nM; in assay [1] it was 34.5 nM; in the assay with N87 (gastric cancer), 41.3 nM.

Regarding `CC[C@H](C)[C@@H]([C@@H](CC(=O)N1CCC[C@H]1[C@H](OC)[C@@H](C)C(=O)N[C@H](Cc1ccccc1)C(=O)O)OC)N(C)C(=O)[C@@H](NC(=O)C(C)(C)NC)C(C)C` [#244] (H-[NMeAib]V[Dil][Dolaproine][dF]-OH), the results for the IC50 (with BT474 (breast cancer) (setting [3]); in assay [1]; in the assay on N87 (gastric cancer)) were 73.1 nM, at least 100 nM and at least 100 nM, respectively.

Take `CC[C@H](C)[C@@H]([C@@H](CC(=O)N1CCC[C@H]1[C@H](OC)[C@@H](C)C(=O)N[C@@H](Cc1ccccc1)C(=O)N1CCNCC1)OC)N(C)C(=O)[C@@H](NC(=O)[C@]1(C)CCCN1C)C(C)C` [#245] (NMeαMePro-V[Dil][Dolaproine]F-{N(CH2CH2)2NH}): the values for the IC50 (with BT474 (breast cancer) (setting [3]); in assay [1]; with N87 (gastric cancer)) were 11.8 nM, 31.9 nM and 33 nM, respectively.

In the case of `CC[C@H](C)[C@@H]([C@@H](CC(=O)N1CCC[C@H]1[C@H](OC)[C@@H](C)C(=O)N[C@H](CN)Cc1ccccc1)OC)N(C)C(=O)[C@@H](NC(=O)[C@]1(C)CCCN1C)C(C)C` [#246], the values for the IC50 (with BT474 (breast cancer) (setting [3]); in assay [1]; with N87 (gastric cancer)) were 3.16 nM, 5.43 nM and 10.8 nM, respectively.

B1: ch75-MalPeg6C2-8261 (conjugate)
VH: QVKLLQSGAALVKPGASVKMSCKASGYAFTDYWVTWVKQSHGKSLEWIGEISPNSGGTNFNEKFKGKATLTVDKSTSTAYMELSRLTSEDSAIYYCTRGEIRYNWFAYWGQGTLVTVSS
VL: DIQMTQSPSSLSASVGDRVTITCKASQNVGNNIAWYQQKPGKAPKLLIYYASNRYTGVPSRFSGSGYGTDFTLTISSLQPEDFATYYCQRLYNSPFTFGGGTKVEIK
As to B1, the “IC50 (ng Ab/mL) ± S.E.M.” value in assay [2] was found to be 4255 ± 2375 ng Ab/mL.

B2: ch75-me0131 (conjugate)
VH: QVKLLQSGAALVKPGASVKMSCKASGYAFTDYWVTWVKQSHGKSLEWIGEISPNSGGTNFNEKFKGKATLTVDKSTSTAYMELSRLTSEDSAIYYCTRGEIRYNWFAYWGQGTLVTVSS
VL: DIQMTQSPSSLSASVGDRVTITCKASQNVGNNIAWYQQKPGKAPKLLIYYASNRYTGVPSRFSGSGYGTDFTLTISSLQPEDFATYYCQRLYNSPFTFGGGTKVEIK
As for B2, the “IC50 (ng Ab/mL) ± S.E.M.” value in assay [2] was found to be 259 ng Ab/mL.
